# Measured values reported in patent US20170121319A1, “Herbicidal Compounds” (Syngenta Participations AG, priority 2014, published 2017).
# Columns and labels:
# Format in all cases: in vivo
# Set-up in all cases: key: 5=total damage to plant; 0=no damage to plant
# [1] = tested on: ABUTH = Abutilon theophrasti; test: Pre-emergence herbicidal activity, glasshouse pot test
# Procedure: (§1) Seeds of a variety of test species were sown in standard soil in pots. After cultivation for one day (pre-emergence) under controlled conditions in a glasshouse (at 24/16° C., day/night; 14 hours light; 65% humidity), the plants were sprayed with an aqueous spray solution derived from the formulation of the technical active ingredient in acetone/water (50:50) solution containing 0.5% Tween 20 (polyoxyethelyene sorbitan monolaurate, CAS RN 9005-64-5). The test plants were then grown in a glasshouse under controlled conditions (at 24/16° C., day/night; 14 hours light; 65% humidity) and watered twice daily. After 13 days, the test was evaluated (5=total damage to plant; 0=no damage to plant). Pre- and post-emergence testing was carried out as detailed above on the compounds A1, A2, A4 and A5 and their respective S-enantiomers.
# [2] = tested on: AMARE = Amaranthus retroflexus; test: as above
# Procedure: as §1
# [3] = tested on: ECHCG = Echinochloa crus-galli; test: as above
# Procedure: as §1
# [4] = tested on: LOLPE; test: as above
# Procedure: as §1
# [5] = tested on: SETFA = Setaria faberi; test: as above; conditions: for SEFTA damage score (0-5): comparison of enantiomers
# Procedure: as §1
# [6] = tested on: ZEAMX = Zea mays; test: as above
# Procedure: as §1
# [7] = tested on: ABUTH = Abutilon theophrasti; test: Post-emergence herbicidal activity, glasshouse pot test
# Procedure: (§2) Seeds of a variety of test species were sown in standard soil in pots. After 8 days cultivation (post-emergence) under controlled conditions in a glasshouse (at 24/16° C., day/night; 14 hours light; 65% humidity), the plants were sprayed with an aqueous spray solution derived from the formulation of the technical active ingredient in acetone/water (50:50) solution containing 0.5% Tween 20 (polyoxyethelyene sorbitan monolaurate, CAS RN 9005-64-5). The test plants were then grown in a glasshouse under controlled conditions (at 24/16° C., day/night; 14 hours light; 65% humidity) and watered twice daily. After 13 days, the test was evaluated (5=total damage to plant; 0=no damage to plant). Pre- and post-emergence testing was carried out as detailed above on the compounds A1, A2, A4 and A5 and their respective S-enantiomers.
# [8] = tested on: AMARE = Amaranthus retroflexus; test: as above
# Procedure: as §2
# [9] = tested on: ECHCG = Echinochloa crus-galli; test: as above
# Procedure: as §2
# [10] = tested on: LOLPE; test: as above
# Procedure: as §2
# [11] = tested on: SETFA = Setaria faberi; test: as above; conditions: for SEFTA damage score (0-5): comparison of enantiomers
# Procedure: as §2
# [12] = tested on: ZEAMX = Zea mays; test: as above
# Procedure: as §2
# [13] = 1000 g/Ha, evaluated after 13 days
# [14] = comparison of enantiomers, 62.5 g/Ha
# [15] = comparison of enantiomers, 250 g/Ha
smiles,measurement,setting,value
CCO[C@@H]1C(O)N(c2cc(C(C)(C)F)on2)C(=O)N1C (stereo partly drawn) [Example A5],ABUTH damage score (0-5),[1]; [13],5
same,ABUTH damage score (0-5),[1]; [14],5
same,ABUTH damage score (0-5),[1]; [15],5
same,AMARE damage score (0-5),[2]; [13],5
same,AMARE damage score (0-5),[2]; [14],5
same,AMARE damage score (0-5),[2]; [15],5
same,ECHCG damage score (0-5),[3]; [13],5
same,ECHCG damage score (0-5),[3]; [14],5
same,ECHCG damage score (0-5),[3]; [15],2
same,LOLPE damage score (0-5),[4]; [13],5
same,LOLPE damage score (0-5),[4]; [14],4
same,LOLPE damage score (0-5),[4]; [15],5
same,SETFA damage score (0-5),[5]; [13],5
same,SEFTA damage score (0-5),[5]; 62.5 g/Ha,5
same,SEFTA damage score (0-5),[5]; 250 g/Ha,5
same,ZEAMX damage score (0-5),[6]; [13],3
same,ZEAMX damage score (0-5),[6]; [14],5
same,ZEAMX damage score (0-5),[6]; [15],5
same,ABUTH damage score (0-5),[7]; [13],5
same,ABUTH damage score (0-5),[7]; [14],5
same,ABUTH damage score (0-5),[7]; [15],5
same,AMARE damage score (0-5),[8]; [13],5
same,AMARE damage score (0-5),[8]; [14],5
same,AMARE damage score (0-5),[8]; [15],5
same,ECHCG damage score (0-5),[9]; [13],5
same,ECHCG damage score (0-5),[9]; [14],5
same,ECHCG damage score (0-5),[9]; [15],5
same,LOLPE damage score (0-5),[10]; [13],5
same,LOLPE damage score (0-5),[10]; [14],5
same,LOLPE damage score (0-5),[10]; [15],5
same,SETFA damage score (0-5),[11]; [13],5
same,SEFTA damage score (0-5),[11]; 62.5 g/Ha,5
same,SEFTA damage score (0-5),[11]; 250 g/Ha,5
same,ZEAMX damage score (0-5),[12]; [13],5
same,ZEAMX damage score (0-5),[12]; [14],5
same,ZEAMX damage score (0-5),[12]; [15],5
